This is an account of results in PubChem BioAssay (NCI).

Structures are written as SMILES.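 Exposure lasted 48 hours, with cells grown in 96-well plates and compounds tested at five concentrations. Here, GI50 denotes the concentration required for 50% inhibition of growth. Definition used: TGI = concentration required for complete inhibition of growth.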 Where only a bound is given, the exact number is not on record here.

Common to all, as to assay: NCI-60 cell line screen, 48 h
Experiment [1] relates to SK-MEL-28 melanoma.
The test system of experiment [2] is CCRF-CEM leukemia.
Experiment [3] relates to MDA-MB-231 breast.
Experiment [4] has as its system A498 renal.
For experiment [5], the system named is HL-60(TB) leukemia.
Experiment [6] has as its system SR leukemia.
The test system of experiment [7] is HS 578T breast.
For experiment [8], the system named is SW-620 colon.
Experiment [9] concerns BT-549 breast.
In experiment [10] the test system is HT29 colon.

As for `COc1cccc2c1ccc1nc3cccc(C(=O)N[C@H](C)CN(C)C)c3nc12`, the GI50 is 0.221 µM in experiment [1]; 0.12 µM in experiment [2]; 0.178 µM in experiment [3]; 0.0793 µM in experiment [4]; 0.32 µM in experiment [5]; 0.0315 µM in experiment [6]. Moreover, the GI50 in experiment [7] is 0.166 µM; in experiment [8], 0.039 µM; in experiment [9], 0.795 µM; in experiment [10] it was 0.0427 µM. Moreover, the TGI in experiment [1] is 1.51 µM; in [2], 7 µM; in experiment [3], 3.25 µM; in experiment [4], 0.235 µM; in experiment [5] it was 1.98 µM; in experiment [7], 3.42 µM. Further, the TGI in experiment [8] was 0.694 µM; in experiment [9], 2.93 µM; in [10] it was 0.365 µM.
On to `Cc1cc(NCCN(C(C)C)C(C)C)nc(/N=C(\N)Nc2ccc(Cl)c(C(F)(F)F)c2)n1`, for which the GI50 in experiment [1] is 0.176 µM; in experiment [2], 0.335 µM; in experiment [3] it was 0.292 µM; in experiment [4] it was 0.139 µM; in experiment [5], 0.38 µM; in experiment [6] it was 0.155 µM. The GI50 was 0.473 µM in experiment [7], 0.532 µM in experiment [8], 1.64 µM in experiment [9] and 0.267 µM in [10]. Further, the TGI in [1] is 0.32 µM; in [2], 1.47 µM; in experiment [3], 1.04 µM; in experiment [4] it was 1.42 µM; in [5] it was 0.952 µM; in experiment [6], 0.425 µM. The TGI in experiment [7] is 1.69 µM; in experiment [8] it was 1.62 µM; in [9], 3.59 µM; in experiment [10], 0.919 µM.
With `CNC(=O)c1cccc2cc(Oc3ccnc4cc(OCC5(N)CC5)c(OC)cc34)ccc12`, the GI50 is 10.4 µM in experiment [1]; 4.78 µM in experiment [2]; 9.79 µM in experiment [3]; 0.167 µM in experiment [4]; 8.26 µM in [5]; 2.29 µM in [6]. Also, the GI50 was 5.5 µM in experiment [7], 5.96 µM in experiment [8], 5.63 µM in experiment [9] and 6.73 µM in experiment [10]. Besides, the TGI in experiment [1] was 30.3 µM; in [2], 29.7 µM; in experiment [3], 27.9 µM; in experiment [4], 3.12 µM; in [5], 26.3 µM; in experiment [6] it was 10.6 µM. The TGI came out at 30.2 µM in experiment [7], 20.5 µM in experiment [8], 22.1 µM in experiment [9] and 21.1 µM in experiment [10].
As for `COc1cc2c3c(n(CCCCN)c(=O)c2cc1OC)-c1cc2c(cc1C3=O)OCO2`, the GI50 was 1.56 µM in [1]; 0.0913 µM in [2]; 0.442 µM in [3]; 7.81 µM in experiment [4]; 1.88 µM in [5]; 0.115 µM in [6]. Also, the GI50 in experiment [7] was 4.6 µM; in experiment [8], 0.0851 µM; in experiment [9], 1.17 µM; in experiment [10], 0.586 µM. The TGI in experiment [1] worked out at 12.4 µM; in experiment [2] it was 3.75 µM; in experiment [3], 1.56 µM; in experiment [4], 17 µM; in experiment [5] it was 15.4 µM; in [6] it was 0.417 µM. The TGI in experiment [7] came to 11.8 µM; in experiment [8], 2.3 µM; in experiment [9], 4.84 µM; in [10], 25 µM.
With `O=C(Nc1cccc(-n2cc(-c3ccncc3)c(-c3ccc(Cl)c(O)c3)n2)c1)c1ccc(N2CCOCC2)c(C(F)(F)F)c1`, the GI50 in experiment [1] was 1.5 µM; in [2] it was 1.82 µM; in experiment [3], 0.975 µM; in experiment [4], 15.5 µM; in experiment [5], 3.81 µM; in experiment [6], 1.63 µM. The GI50 in experiment [7] was 1.85 µM; in [8], 1.72 µM; in experiment [9] it was 19.4 µM; in experiment [10] it was 14.4 µM. Further, the TGI in [1] was 6.04 µM; in [2], greater than 50 µM; in experiment [3] it was 15.6 µM; in [4], greater than 50 µM; in [5] it was greater than 50 µM; in experiment [6], greater than 50 µM. Moreover, the TGI is greater than 50 µM in experiment [7], 5.68 µM in [8], greater than 50 µM in experiment [9] and greater than 50 µM in [10].
Turning to `COC(=O)c1ccccc1OCc1cc(=O)oc2ccc(C)cc12`, the TGI in experiment [1], in [2], in [3], in [4], in experiment [5] and in experiment [6] was greater than 100 µM each time. For the same compound, the TGI in experiment [7], in experiment [8], in experiment [9] and in experiment [10] was greater than 100 µM each time.
Consider `COc1cccc(-n2nc(C)c3c(N/N=C(\C)c4ccncc4)ncnc32)c1`, for which the GI50 is greater than 25 µM in experiment [1]; greater than 25 µM in experiment [2]; 8.4 µM in experiment [3]; 4.76 µM in experiment [4]; greater than 25 µM in experiment [5]; greater than 25 µM in experiment [6]. Moreover, the GI50 was greater than 25 µM in experiment [7], greater than 25 µM in [8], greater than 21.9 µM in experiment [9] and greater than 25 µM in experiment [10]. For the same compound, the TGI in experiment [1], in experiment [2], in experiment [3], in experiment [4], in experiment [5] and in [6] was greater than 25 µM in each case. Moreover, the TGI in experiment [7], in experiment [8], in experiment [9] and in experiment [10] was greater than 25 µM in each case.
In the case of `CC1OC(OC2C[C@](O)(C(=O)CF)Cc3c(O)c4c(c(O)c32)C(=O)c2ccccc2C4=O)CC(N)C1O` (some centres undefined), the TGI in experiment [1] was 1.91 µM; in experiment [2], 0.0133 µM; in [3], 0.283 µM; in experiment [4], 1.28 µM; in [5] it was less than 0.0291 µM; in experiment [6] it was 0.0708 µM. Also, the TGI in [7] was 0.117 µM; in experiment [8], 0.741 µM; in experiment [9], 0.918 µM; in experiment [10], 0.0905 µM.
